This is an account of results in patent US11040954B1, “CXCR3 receptor agonists” (RECEPTOS LLC, priority 2016, dated 2021).

The test addresses T1, CXCR3 (Homo sapiens, UniProt P49682).
T1 construct: host or cells: CHO-K1 (cAMP Hunter CHOK1 CXCR3 Gi cell line)
T1 sequence (P49682 1-368): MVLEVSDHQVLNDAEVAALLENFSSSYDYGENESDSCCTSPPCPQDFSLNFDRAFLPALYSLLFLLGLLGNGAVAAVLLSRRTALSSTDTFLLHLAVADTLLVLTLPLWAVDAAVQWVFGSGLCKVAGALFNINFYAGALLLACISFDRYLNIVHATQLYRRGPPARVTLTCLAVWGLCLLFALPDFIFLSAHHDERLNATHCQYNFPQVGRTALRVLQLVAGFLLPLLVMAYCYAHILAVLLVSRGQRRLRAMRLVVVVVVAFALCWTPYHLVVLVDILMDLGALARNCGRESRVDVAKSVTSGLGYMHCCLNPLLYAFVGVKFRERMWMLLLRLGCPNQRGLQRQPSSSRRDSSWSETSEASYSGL
In words: CXCR3 cAMP agonist assay (cAMP Hunter CHOK1 CXCR3 Gi cell line, forskolin-stimulated, HitHunter cAMP detection). Type of test: cell-based. As to conditions: cAMP Hunter CHOK1 CXCR3 Gi cells, 20 μM forskolin, 30 minutes; read-out: Activity (CXCR3 cAMP agonist assay compound EC50). A digest of the protocol: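 Agonist activity was measured as suppression of forskolin (20 μM)-induced cAMP, read by luminescent enzyme-fragment complementation with a cAMP standard curve and CXCL11 defining full efficacy. Assay used 50,000 CXCR3 Gi CHOK1 cells/well in pH 7.4 HEPES-buffered HBSS with 0.1% BSA, compound 0-10 μM over 12 points, 30 min incubation.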

The EC50 is the midpoint of the concentration-response curve. For the compound `Cc1cc(NC(=O)[C@@](C)(CCCCN)NC(=O)[C@@H]2Cc3ccccc3CN2C(=O)CCC(=O)c2ccccc2)ccc1Cl` [Compound 4-9], the EC50 is 50 to 250 nM.
As for `Cc1cc(NC(=O)[C@H](CCN)NC(=O)[C@@H]2Cc3ccccc3CN2C(=O)CCC(=O)N2CCCCC23CCC3)ccc1Cl` [Compound 12-72], the EC50 is below 50 nM.
To `Cc1cc(NC(=O)[C@H](CCN2CCNC(=O)C2)NC(=O)[C@@H]2Cc3ccccc3CN2C(=O)CCC(=O)c2ccccc2)ccc1Cl` [Compound 17-3] belongs 50 to 250 nM.
In the case of `Cc1cc(NC(=O)[C@H](CCNCC(F)(F)F)NC(=O)[C@@H]2Cc3ccccc3CN2C(=O)CCC(=O)c2ccccc2)ccc1Cl` [Compound 8-6], the EC50 was 50 to 250 nM.
With `Cc1cccc(NC(=O)[C@H](CCN)NC(=O)[C@@H]2Cc3ccccc3CN2C(=O)CCC(=O)c2ccccc2)c1Cl` [Compound 14-6], the concentration giving a half-maximal response (EC50) is below 50 nM.
Consider `Cc1cc(NC(=O)[C@H](CCN)NC(=O)[C@@H]2Cc3ccccc3CN2C(=O)CCC(=O)N2CC[C@@H](C)C2)ccc1Cl` [Compound 12-122], for which the EC50 is below 50 nM.
Take `CC1(C)CCc2cc(NC(=O)[C@H](CCN)NC(=O)[C@@H]3Cc4ccccc4CN3C(=O)CCC(=O)c3ccccc3)ccc21` [Compound 2-72]: the EC50 was below 50 nM.
To `Cc1cc(NC(=O)[C@H](CCN)NC(=O)[C@@H]2Cc3ccccc3CN2C(=O)CCC(=O)N2CC(C(C)(C)C)C2)ccc1Cl` [Compound 12-40] belongs below 50 nM.
The figure for `Cc1cc(NC(=O)[C@H](CCN)NC(=O)[C@@H]2Cc3ccccc3CN2C(=O)CCC(=O)N2CCC(F)(F)C2)ccc1Cl` [Compound 12-8] is 50 to 250 nM; for `Cc1cccc(NC(=O)[C@H](CCN)NC(=O)[C@@H]2Cc3ccccc3CN2C(=O)CCC(=O)c2ccccc2)c1C#N` [Compound 14-19] it is 50 to 250 nM.
`CCN(CC(C)(C)C)C(=O)CCC(=O)N1Cc2ccccc2C[C@H]1C(=O)N[C@@H](CCN)C(=O)Nc1ccc(Cl)c(Cl)c1F` [Compound 15-40]: the EC50 lay within 50 to 250 nM.
As to `COc1ccccc1NC(=O)[C@H](CCCCN)NC(=O)[C@@H]1Cc2ccccc2CN1C(=O)CCC(=O)c1ccccc1` [Compound 1-6], the concentration for a half-maximal effect (EC50) was 250 to 500 nM.
Regarding `O=C(CCC(=O)N1Cc2ccccc2C[C@H]1C(=O)N[C@@H](CCN1CCS(=O)(=O)CC1)C(=O)Nc1ccc2c(c1)CCC2)c1ccccc1` [Compound 23-9], the EC50 fell in the range of 50 to 250 nM.
`NCC[C@H](NC(=O)[C@@H]1Cc2ccccc2CN1C(=O)CCC(=O)N1CCCC[C@@H]1CO)C(=O)Nc1ccc(Cl)c(Cl)c1F` [Compound 15-18]: the EC50 is below 50 nM.
With `NCC[C@H](NC(=O)[C@@H]1Cc2ccccc2CN1C(=O)CCC(=O)c1ccccc1)C(=O)Nc1cccc(Cl)c1Cl` [Compound 14-8], the EC50 is below 50 nM.
Consider `NC(=O)NCCCC[C@H](NC(=O)[C@@H]1Cc2ccccc2CN1C(=O)CCC(=O)c1ccccc1)C(=O)Nc1ccc(Cl)c(Cl)c1` [Compound 3-6], for which the EC50 is 250 to 500 nM.
To `NCC[C@H](NC(=O)[C@@H]1Cc2ccccc2CN1C(=O)CCC(=O)c1ccccc1)C(=O)Nc1ccc(C(F)(F)F)c(F)c1` [Compound 2-11] belongs 250 to 500 nM; to `Cc1cc(NC(=O)[C@H](CCN)NC(=O)[C@@H]2Cc3ccccc3CN2C(=O)CCC(=O)N2CC(Cc3ccccc3)C2)ccc1Cl` [Compound 12-38], 250 to 500 nM; to `NCC[C@H](NC(=O)[C@@H]1Cc2ccccc2CN1C(=O)CCC(=O)N1CCCCC1C(F)F)C(=O)Nc1ccc(Cl)c(Cl)c1F` (stereo partly shown) [Compound 15-56], below 50 nM.
On to `CN1CCN(C(=O)CCC(=O)N2Cc3ccccc3C[C@H]2C(=O)N[C@@H](CCN)C(=O)Nc2ccc(Cl)c(Cl)c2F)CC1` [Compound 10-4], for which the EC50 was below 50 nM.
On to `Cc1cc(NC(=O)[C@H](CCN)NC(=O)[C@@H]2Cc3ccccc3CN2C(=O)CCC(=O)N2CCCOCC2)ccc1Cl` [Compound 12-20], for which the EC50 was below 50 nM.
For the compound `NCC[C@H](NC(=O)[C@@H]1Cc2ccccc2CN1C(=O)CCC(=O)N1CCN2CCC[C@@H]2C1)C(=O)Nc1ccc(Cl)c(Cl)c1F` [Compound 15-49], the EC50 is below 50 nM.
With `Cc1cccc(NC(=O)[C@H](CCN2CCC(O)CC2)NC(=O)[C@@H]2Cc3ccccc3CN2C(=O)CCC(=O)c2ccccc2)c1Cl` (racemic) [Compound 25-3], the concentration for a half-maximal effect (EC50) was in the range of 250 to 500 nM.
As to `CC1(C)COCCN1C(=O)CCC(=O)N1Cc2ccccc2C[C@H]1C(=O)NC1(C(=O)Nc2ccc(Cl)c(Cl)c2F)CCNCC1` [Compound 12-127], the EC50 lay within 50 to 250 nM.
As to `Cc1ccc(F)c(NC(=O)[C@H](CCN)NC(=O)[C@@H]2Cc3ccccc3CN2C(=O)CCC(=O)c2ccccc2)c1` [Compound 2-33], the EC50 is below 50 nM.
On to `Cc1cc(NC(=O)[C@H](CCN)NC(=O)[C@@H]2Cc3ccccc3CN2C(=O)CCC(=O)N2CCC(O)CC2)ccc1Cl` [Compound 12-6], for which the EC50 lay in the range of 50 to 250 nM.
Regarding `Cc1cc(NC(=O)[C@H](CCC(N)=O)NC(=O)[C@@H]2Cc3ccccc3CN2C(=O)CCC(=O)c2ccccc2)ccc1Cl` [Compound 3-13], the EC50 was in the range of 50 to 250 nM.
The figure for `NCC[C@H](NC(=O)[C@@H]1Cc2ccccc2CN1C(=O)CCC(=O)N1CCC(C(F)(F)F)C1)C(=O)Nc1ccc(Cl)c(Cl)c1F` (stereo partly shown) [Compound 15-47] is below 50 nM; for `CC(C)NCC[C@H](NC(=O)[C@@H]1Cc2ccccc2CN1C(=O)CCC(=O)c1ccccc1)C(=O)Nc1ccc(Cl)c(Cl)c1F` [Compound 8-7] it is below 50 nM; for `CN(C(=O)CCC(=O)N1Cc2ccccc2C[C@H]1C(=O)N[C@@H](CCN)C(=O)Nc1ccc(Cl)c(Cl)c1F)C1CCCC1` [Compound 15-36] it is below 50 nM.
As for `Cc1cc(NC(=O)[C@H](CCN)NC(=O)[C@@H]2Cc3ccccc3CN2C(=O)CCC(=O)N2CCOCC2)ccc1Cl` [Compound 10-2], the EC50 was in the range of 50 to 250 nM.
The figure for `COc1cc2c(cc1NC(=O)[C@H](CCN)NC(=O)[C@@H]1Cc3ccccc3CN1C(=O)CCC(=O)c1ccccc1)CCCC2` [Compound 2-59] is 250 to 500 nM.
Turning to `Cc1cc(NC(=O)[C@H](CCN)NC(=O)[C@@H]2Cc3ccccc3CN2C(=O)CCC(=O)c2ccccc2)cc(Br)c1Cl` [Compound 2-40], the EC50 was below 50 nM.
In the case of `CN(CCC(C)(C)C)C(=O)CCC(=O)N1Cc2ccccc2C[C@H]1C(=O)N[C@@H](CCN)C(=O)Nc1ccc(Cl)c(Cl)c1F` [Compound 15-44], the concentration giving a half-maximal response (EC50) was below 50 nM.
Take `Cc1cc(NC(=O)[C@H](CCN)NC(=O)[C@@H]2Cc3ccccc3CN2C(=O)CCC(=O)N2CC[C@H](C)C2)ccc1Cl` [Compound 12-123]: the concentration giving a half-maximal response (EC50) is below 50 nM.
Take `Cc1cc(NC(=O)[C@H](CCNC2CC2)NC(=O)[C@@H]2Cc3ccccc3CN2C(=O)CCC(=O)c2ccccc2)ccc1Cl` [Compound 16-1, (S)—N—((S)-1-((4-chloro-3-methylphenyl)amino)-4-(cyclopropylamino)-1-oxobutan-2-yl)-2-(4-oxo-4-phenylbutanoyl)-1,2,3,4-tetrahydroisoquinoline-3-carboxamide]: the EC50 was below 50 nM.
With `NCC[C@H](NC(=O)[C@@H]1Cc2ccccc2CN1C(=O)CCC(=O)N1CCCC[C@H]1CO)C(=O)Nc1ccc(Cl)c(Cl)c1F` [Compound 15-19], the EC50 was in the range of 50 to 250 nM.
With `Cc1cc(NC(=O)[C@H](CCN)NC(=O)[C@@H]2Cc3ccccc3CN2C(=O)CCC(=O)N2CCC(C#N)CC2)ccc1Cl` [Compound 12-44], the EC50 was below 50 nM.
Consider `Cc1cc(NC(=O)[C@H](CCN)NC(=O)[C@@H]2Cc3ccccc3CN2C(=O)CCC(=O)N2CCCC3(CCC3)C2)cc(C)c1Cl` [Compound 10-11], for which the EC50 was below 50 nM.
The figure for `NCC[C@H](NC(=O)[C@@H]1Cc2ccccc2CN1C(=O)CCC(=O)c1ccccc1)C(=O)Nc1ccc(F)c(F)c1` [Compound 2-8] is above 500 nM.
Turning to `Cc1cc(NC(=O)[C@H](CCN)NC(=O)[C@@H]2Cc3ccccc3CN2C(=O)CCC(=O)N2CCC3(CCC3)CC2)ccc1Cl` [Compound 12-59], the EC50 is below 50 nM.
Consider `Cc1cc(NC(=O)[C@H](CC[N+](C)(C)C)NC(=O)[C@@H]2Cc3ccccc3CN2C(=O)CCC(=O)c2ccccc2)ccc1Cl` [Compound 6-7], for which the EC50 was in the range of 50 to 250 nM.
To `Cc1cc(NC(=O)[C@H](CCN)NC(=O)[C@@H]2Cc3ccccc3CN2C(=O)CCC(=O)N2CCCC2)ccc1Cl` [Compound 12-5] belongs below 50 nM.
The figure for `NCC[C@H](NC(=O)[C@@H]1Cc2ccccc2CN1C(=O)CCC(=O)N1CCCCC12CCC2)C(=O)Nc1ccc(Cl)c(Cl)c1F` [Compound 15-7] is below 50 nM.
Turning to `COc1ccc(C)cc1NC(=O)[C@H](CCN)NC(=O)[C@@H]1Cc2ccccc2CN1C(=O)CCC(=O)c1ccccc1` [Compound 1-38], the concentration for a half-maximal effect (EC50) was below 50 nM.
On to `CCN1CCN(C(=O)CCC(=O)N2Cc3ccccc3C[C@H]2C(=O)N[C@@H](CCN)C(=O)Nc2ccc(Cl)c(C)c2)CC1` [Compound 12-99], for which the EC50 fell in the range of 50 to 250 nM.
For the compound `NCC[C@H](NC(=O)[C@@H]1Cc2ccccc2CN1C(=O)CCC(=O)c1ccccc1)C(=O)Nc1ccc2ncsc2c1` [Compound 2-65], the 50% effective concentration (EC50) is 50 to 250 nM.
The figure for `NCC[C@H](NC(=O)[C@@H]1Cc2ccccc2CN1C(=O)CCC(=O)c1ccccc1)C(=O)Nc1cc(Cl)ccc1C(F)(F)F` [Compound 14-14] is 50 to 250 nM; for `CCN(CC)C(=O)CCC(=O)N1Cc2ccccc2C[C@H]1C(=O)N[C@@H](CCN)C(=O)Nc1ccc(Cl)c(C)c1` [Compound 12-14] it is 50 to 250 nM.
